Measured values: PMC10025480 (Frontiers in Pharmacology, 2023)
Each block holds one molecule with its values, some of them ahead of it.

Columns and labels:
5-HT2B = 5-HT2B (Homo sapiens, UniProt P41595); test: SelectScreen cell-based GPCR assay, 5-HT2B; conditions: 10 µM
Excerpt: (§1) Profiling of compound activity versus a select panel of diverse GPCRs was undertaken by ThermoFisher Scientific (United Kingdom) via their SelectScreen cell-based GPCR assay panel. Detailed experimental protocols on this assay platform can be found at (https://www.thermofisher.com/content/dam/LifeTech/migration/en/filelibrary/services/discovery-research/pdfs.par.36410.file.dat/sscg-brochure.pdf). Briefly these assays detect agonist or antagonist activity using cell lines with the GPCR of interest over-expressed, driving the expression of a reporter gene encompassing a mammalian-optimized Beta-lactamase. Test compounds are incubated with the specific cell lines at the defined final concentration for 5 or 16 h (depending on the cell line specifics) before quantification of effect.

delta opioid = delta opioid (Homo sapiens, UniProt P41143); test: SelectScreen cell-based GPCR assay, delta opioid; conditions: 10 µM
Excerpt: as §1

[1] = tested on: human vascular smooth muscle preparations; conditions: ref Papp et al., 2019; Danahay et al., 2020b; cited from earlier work
[2] = tested on: human bronchial smooth muscle; conditions: cited from earlier work
[3] = cited from earlier work

5-HT2B, sequence (P41595 whole entry): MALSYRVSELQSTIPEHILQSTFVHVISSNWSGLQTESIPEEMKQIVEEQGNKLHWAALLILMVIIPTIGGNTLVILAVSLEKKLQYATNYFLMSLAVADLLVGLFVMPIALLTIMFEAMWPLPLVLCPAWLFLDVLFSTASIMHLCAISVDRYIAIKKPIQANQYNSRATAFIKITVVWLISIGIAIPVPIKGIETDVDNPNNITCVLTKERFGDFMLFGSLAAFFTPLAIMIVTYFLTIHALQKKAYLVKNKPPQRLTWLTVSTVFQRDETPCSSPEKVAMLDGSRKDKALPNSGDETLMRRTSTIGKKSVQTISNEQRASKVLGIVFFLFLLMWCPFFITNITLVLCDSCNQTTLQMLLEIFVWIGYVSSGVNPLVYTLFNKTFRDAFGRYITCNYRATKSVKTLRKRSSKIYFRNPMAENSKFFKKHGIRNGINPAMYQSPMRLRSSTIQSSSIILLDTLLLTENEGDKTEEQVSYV
delta opioid, sequence (P41143 whole entry): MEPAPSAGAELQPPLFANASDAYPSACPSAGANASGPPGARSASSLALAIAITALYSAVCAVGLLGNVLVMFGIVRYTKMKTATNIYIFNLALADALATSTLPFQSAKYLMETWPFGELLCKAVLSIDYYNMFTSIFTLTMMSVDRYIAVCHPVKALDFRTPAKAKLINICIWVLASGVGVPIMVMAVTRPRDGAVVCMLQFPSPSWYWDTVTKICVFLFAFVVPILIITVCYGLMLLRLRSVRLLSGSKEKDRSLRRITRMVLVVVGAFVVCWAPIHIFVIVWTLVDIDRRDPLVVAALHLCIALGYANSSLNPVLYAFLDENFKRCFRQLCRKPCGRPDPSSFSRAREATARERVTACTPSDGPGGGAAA

inhibition of 5-HT2B (5-HT2B): ≥ 50%
inhibition of delta opioid (delta opioid): ≥ 50%
Molecule: COc1ccccc1/C=N/NC(=O)COc1ccc(Cl)cc1C [Ani9]

Molecule: CCc1c(C)nc(SCC(=O)Nc2nc(-c3ccc(OC)cc3)cs2)[nH]c1=O [T16Ainh-A01]
activity in human vascular smooth muscle preparations [1]: failed to show activity

Molecule: ETX001
effect on freshly isolated human bronchial smooth muscle tone [2]: no effect
effect on lung function in vivo [3]: no effect
